Results taken from ChEMBL document CHEMBL4043274, “4-Hydroxy-2-pyridones: Discovery and evaluation of a novel class of antibacterial agents targeting DNA synthesis” (Bioorg Med Chem Lett, 2017).
Converted amounts (≈) assume the structure as drawn. The source made the active and inactive calls. The rule behind the calls is not given here.

Experiments:
[1] = tested on: Escherichia coli; experiment: Antibacterial activity against wild-type Escherichia coli ATCC 25922 by CLSI M100-S17 protocol based method; assay type: functional
[2] = tested on: Escherichia coli; experiment: Antibacterial activity against Escherichia coli BAS849 by CLSI M100-S17 protocol based method; assay type: functional
[3] = tested on: Escherichia coli; experiment: Antibacterial activity against quinolone resistant Escherichia coli SKM18 by CLSI M100-S17 protocol based method; assay type: functional
[4] = tested on: Escherichia coli; experiment: Antibacterial activity against wild-type Escherichia coli ATCC 25922 in presence of human serum albumin by CLSI M100-S17 protocol based method; assay type: functional
[5] = Selectivity ratio of MIC for wild-type Escherichia coli ATCC 25922 to MIC for Escherichia coli BAS849; assay type: functional
[6] = tested on: Acinetobacter baumannii; experiment: Antibacterial activity against Acinetobacter baumannii ATCC BAA-747 by CLSI M100-S17 protocol based method; assay type: functional
[7] = tested on: Klebsiella pneumoniae; experiment: Antibacterial activity against Klebsiella pneumoniae ATCC 35657 by CLSI M100-S17 protocol based method; assay type: functional
[8] = tested on: Escherichia coli; experiment: Ratio of MIC in presence to absence of HSA for wild-type Escherichia coli ATCC 25922; assay type: functional
[9] = tested on: Staphylococcus aureus; experiment: Antibacterial activity against multidrug resistant Staphylococcus aureus by broth microdilution assay; assay type: functional
[10] = tested on: Escherichia coli; experiment: Antibacterial activity against wild-type Escherichia coli ATCC 25922 infected in iv dosed CD-1 mouse assessed as mouse survival treated for 1 hr followed by reinfection with bacteria measured at 96 hrs post infection; assay type: functional; conditions: ATCC 25922, iv, read-out: PD50
[11] = tested on: Staphylococcus aureus; experiment: Antibacterial activity against wild-type Staphylococcus aureus ATCC 29213 by CLSI M100-S17 protocol based method; assay type: functional
[12] = Selectivity ratio of MIC for quinolone resistant Escherichia coli SKM18 to MIC for wild-type Escherichia coli ATCC 25922; assay type: functional
[13] = tested on: Staphylococcus aureus; experiment: Inhibition of DNA synthesis in wild-type Staphylococcus aureus ATCC 29213 at MIC; assay type: functional
[14] = Inhibition of DNA gyrase-A in Escherichia coli ATCC 25922 using relaxed pBR322 DNA as substrate after 30 mins by ethidium bromide staining based agarose gel electrophoresis method
[15] = tested on: Escherichia coli ATCC 25922; experiment: Inhibition of Escherichia coli ATCC 25922 topoisomerase-4 ParC at 100 uM using kinetoplast DNA as substrate after 60 mins relative to control
[16] = tested on: Staphylococcus aureus; experiment: Inhibition of protein synthesis in wild-type Staphylococcus aureus ATCC 29213 at 1.6 ug/ml; assay type: functional

SMILES | MIC [1] | MIC [2] | MIC [3] | MIC [4] | MIC [6] | MIC [7] | further results
CN(C)c1ccc(-c2[nH]c(=O)c(C(=O)O)c(O)c2Cc2ccccc2)cc1 | > 12.5 µg/mL | > 12.5 µg/mL | – | – | – | – | –
CCn1cc(C(=O)O)c(=O)cc1-c1ccc(N(C)C)cc1 | 6.3 µg/mL (≈ 22 µM) | 0.39 µg/mL (≈ 1.36 µM) | > 62.5 µg/mL | – | – | – | –
CCc1c(-c2ccc(N3CC=CC3)cc2)[nH]c(=O)c(C(=O)O)c1O | 0.78 µg/mL (≈ 2.39 µM) | 0.01 µg/mL (≈ 0.0306 µM) | > 62.5 µg/mL | 32.2 µg/mL | – | – | Selectivity ratio [5]: > 50
CCc1c(-c2ccc(N3CCC(C4(N)CC4)C3)cc2)[nH]c(=O)c(C(=O)O)c1O (centres undefined) | 1.6 µg/mL (≈ 4.17 µM) | 0.39 µg/mL (≈ 1.02 µM) | – | 12.5 µg/mL | 3.1 µg/mL (≈ 8.08 µM) | 3.1 µg/mL (≈ 8.08 µM) | Ratio [8]: 4 - 8
COc1c(N2C[C@@H]3CCCN[C@@H]3C2)c(F)cc2c(=O)c(C(=O)O)cn(C3CC3)c12 [MOXIFLOXACIN] | – | – | – | – | – | – | MIC50 [9]: 4 µg/mL (≈ 9.96 µM); MIC90 [9]: 32 µg/mL (≈ 79.7 µM); ED50 [10]: < 3 mg/kg
CCc1c(-c2ccc(N(C)C)cc2OC)[nH]c(=O)c(C(=O)O)c1O | > 12.5 µg/mL | 6.3 µg/mL (≈ 19 µM) | – | – | – | – | –
CCc1c(-c2ccc(N3CC(N)C4(CC4)C3)cc2)[nH]c(=O)c(C(=O)O)c1O (centres undefined) | 3.1 µg/mL (≈ 8.39 µM) | 0.78 µg/mL (≈ 2.11 µM) | 6.3 µg/mL (≈ 17.1 µM) | – | – | – | –
CCc1c(-c2ccc(N3C[C@@H]4[C@H](C3)[C@H]4NC)cc2)[nH]c(=O)c(C(=O)O)c1O | 0.39 µg/mL (≈ 1.06 µM) | 0.049 µg/mL (≈ 0.133 µM) | 3.1 µg/mL (≈ 8.39 µM) | 3.1 µg/mL | 1.6 µg/mL (≈ 4.33 µM) | 0.39 µg/mL (≈ 1.06 µM) | Ratio [8]: 4 - 8
CCc1c(-c2ccc(N3CCC(C4(N)CCC4)C3)cc2)[nH]c(=O)c(C(=O)O)c1O (centres undefined) | 1.6 µg/mL (≈ 4.03 µM) | 0.39 µg/mL (≈ 0.981 µM) | 0.19 µg/mL (≈ 0.478 µM) | 12.5 µg/mL | 3.1 µg/mL (≈ 7.8 µM) | 1.6 µg/mL (≈ 4.03 µM) | Ratio [8]: 4 - 8
CCc1c(-c2ccc(N3CCC(N4CCCC4)C3)cc2)[nH]c(=O)c(C(=O)O)c1O (centres undefined) | 1.6 µg/mL (≈ 4.03 µM) | 0.19 µg/mL (≈ 0.478 µM) | 6.3 µg/mL (≈ 15.9 µM) | 3.1 µg/mL | 3.1 µg/mL (≈ 7.8 µM) | 1.6 µg/mL (≈ 4.03 µM) | Ratio [8]: <4; Selectivity ratio [12]: < 4
CCc1c(-c2ccc(N(C)C)cc2)[nH]c(=O)c(C(=O)O)c1O | 0.78 to 0.8 µg/mL (≈ 2.58 to 2.65 µM) | 0.03 µg/mL (≈ 0.0992 µM) | 15.6 µg/mL (≈ 51.6 µM) | > 25 µg/mL | 6.3 µg/mL (≈ 20.8 µM) | 3.9 µg/mL (≈ 12.9 µM) | MIC [11]: 3.1 µg/mL (≈ 10.3 µM); inhibition [13]: Active; IC50 [14]: 11 µM; inhibition [15]: 30%
CC(C)c1c(-c2ccc(N(C)C)cc2)[nH]c(=O)c(C(=O)O)c1O | 12.5 µg/mL (≈ 39.5 µM) | 0.12 µg/mL (≈ 0.379 µM) | > 62.5 µg/mL | – | – | – | –
CCc1c(-c2ccc(N3CC4CC4(N)C3)cc2)[nH]c(=O)c(C(=O)O)c1O (centres undefined) | 1.6 µg/mL (≈ 4.5 µM) | 0.04 µg/mL (≈ 0.113 µM) | 6.3 µg/mL (≈ 17.7 µM) | > 12.5 µg/mL | 6.3 µg/mL (≈ 17.7 µM) | 3.1 µg/mL (≈ 8.72 µM) | –
CCc1c(-c2ccc(N3CCC(C4(N(C)C)CC4)C3)cc2)[nH]c(=O)c(C(=O)O)c1O (centres undefined) | 6.3 µg/mL (≈ 15.3 µM) | 0.04 µg/mL (≈ 0.0972 µM) | > 12.5 µg/mL | – | > 25 µg/mL | 12.5 µg/mL (≈ 30.4 µM) | Ratio [8]: 4 - 8
CCc1c(-c2ccc(N(C)C)c(F)c2)[nH]c(=O)c(C(=O)O)c1O | 7.8 µg/mL (≈ 24.4 µM) | 0.39 µg/mL (≈ 1.22 µM) | – | – | – | – | –

More lines, main results first:

MIC [1] | SMILES | MIC [2] | MIC [3] | MIC [4] | MIC [6] | MIC [7] | further results
> 62.5 µg/mL | CN(C)c1ccc(-c2[nH]c(=O)c(C(=O)O)c(O)c2C2CCCCC2)cc1 | 6.25 µg/mL (≈ 17.5 µM) | – | – | – | – | –
> 12.5 µg/mL | CCc1c(-c2ccc(N(C)C)cc2)[nH]c(=O)c(C(=O)O)c1OC | 12.5 µg/mL (≈ 39.5 µM) | – | – | – | – | –
> 12.5 µg/mL | CCc1c(-c2ccc(N(C)C)cc2)n(Cc2ccccc2)c(=O)c2c(O)cc(=O)oc12 | – | – | – | – | – | MIC [11]: 3.1 µg/mL (≈ 7.44 µM)
> 62.5 µg/mL | CN(C)c1ccc(-c2[nH]c(=O)c(C(=O)O)c(O)c2C2CC2)cc1 | 1.56 µg/mL (≈ 4.96 µM) | – | – | – | – | –
> 12.5 µg/mL | CCc1c(-c2ccc(N(C)C)cc2F)[nH]c(=O)c(C(=O)O)c1O | ≤ 0.2 µg/mL | – | – | – | – | –
> 12.5 µg/mL | CCc1c(O)c(C(=O)O)c(=O)n(Cc2ccccc2)c1-c1ccc(N(C)C)cc1 | – | – | – | – | – | MIC [11]: 1.6 µg/mL (≈ 4.08 µM); inhibition [16]: Active; inhibition [13]: Active
> 12.5 µg/mL | CCc1c(-c2ccc(N(C)C)c(OC)c2)[nH]c(=O)c(C(=O)O)c1O | 6.3 µg/mL (≈ 19 µM) | – | – | – | – | –
